Counter-ions that a name gives are not always drawn. Like-named read-outs stand apart in the source and are kept apart here.
Tests used:
Type in all cases: biochemical
[1] = molecular target: T1, α-Galactosidase (Coffee beans) (Coffea arabica, UniProt Q42656); test: α-Galactosidase (coffee beans) inhibition
T1 construct: purchased Sigma-Aldrich Chemical Co
Experimental: (§1) With rat intestinal maltase as an exception, other enzymes were purchased from Sigma-Aldrich Chemical Co. (St. Louis, MO, USA). Brush border membranes prepared from rat small intestine according to the method of Kessler et al. were assayed at pH 6.8 for rat intestinal maltase using maltose. The released D-glucose was determined colorimetrically using the Glucose CII-test Wako (Wako Pure Chemical Ind.; Osaka, Japan). Other glycosidase activities were determined using an appropriate p-nitrophenyl glycoside as substrate in a buffer solution at the optimal pH value of each enzyme. The reaction was stopped by adding 400 mM Na2CO3. The released p-nitrophenol was measured spectrometrically at 400 nm.

[2] = molecular target: α-L-Rhamnosidase (P. decumbens); test: α-L-Rhamnosidase (P. decumbens) inhibition
Experimental: as §1

[3] = molecular target: T2, α-N-Acetylgalactosaminidase (Chicken liver) (Gallus gallus, UniProt Q90744); test: α-N-Acetylgalactosaminidase (chicken liver) inhibition
T2 construct: purchased Sigma-Aldrich Chemical Co; host or cells: chicken liver
T2 sequence (Q90744 1-405): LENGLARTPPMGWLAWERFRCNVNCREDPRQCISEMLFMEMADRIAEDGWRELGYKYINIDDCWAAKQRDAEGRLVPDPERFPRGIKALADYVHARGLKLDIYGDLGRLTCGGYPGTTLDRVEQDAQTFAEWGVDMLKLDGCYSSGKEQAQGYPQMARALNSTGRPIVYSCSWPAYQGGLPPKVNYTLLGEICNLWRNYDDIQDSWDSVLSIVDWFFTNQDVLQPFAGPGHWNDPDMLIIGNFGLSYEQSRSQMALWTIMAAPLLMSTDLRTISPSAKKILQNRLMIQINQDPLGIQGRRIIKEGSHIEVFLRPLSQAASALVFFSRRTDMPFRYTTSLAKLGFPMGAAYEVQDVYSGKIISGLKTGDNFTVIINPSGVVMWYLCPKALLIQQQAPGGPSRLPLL
Experimental: as §1

[4] = molecular target: β-Glucosidase (Bovine liver); test: β-Glucosidase (bovine liver) inhibition
Experimental: as §1

[5] = molecular target: T3, β-Glucuronidase (Bovine liver) (Bos taurus, UniProt A3KMY8); test: β-Glucuronidase (bovine liver) inhibition
T3 construct: purchased Sigma-Aldrich Chemical Co; host or cells: bovine liver
T3 sequence (A3KMY8 1-652): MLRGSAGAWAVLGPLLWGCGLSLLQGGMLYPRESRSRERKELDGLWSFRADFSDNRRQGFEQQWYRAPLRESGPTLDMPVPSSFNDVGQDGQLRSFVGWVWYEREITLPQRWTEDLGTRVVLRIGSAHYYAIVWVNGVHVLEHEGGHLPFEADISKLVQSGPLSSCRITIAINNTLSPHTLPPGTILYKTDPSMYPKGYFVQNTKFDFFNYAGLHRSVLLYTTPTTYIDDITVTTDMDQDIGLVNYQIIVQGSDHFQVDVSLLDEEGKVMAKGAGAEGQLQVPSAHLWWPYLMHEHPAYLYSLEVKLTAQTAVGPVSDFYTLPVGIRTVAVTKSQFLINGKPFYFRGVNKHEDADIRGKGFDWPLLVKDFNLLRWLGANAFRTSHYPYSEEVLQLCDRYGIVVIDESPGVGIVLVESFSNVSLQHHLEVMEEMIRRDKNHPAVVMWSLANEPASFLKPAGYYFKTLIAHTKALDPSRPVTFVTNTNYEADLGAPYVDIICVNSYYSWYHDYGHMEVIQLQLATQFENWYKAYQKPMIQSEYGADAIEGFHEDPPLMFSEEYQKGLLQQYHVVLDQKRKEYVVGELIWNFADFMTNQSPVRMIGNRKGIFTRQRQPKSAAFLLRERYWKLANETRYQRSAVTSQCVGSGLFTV
Experimental: as §1

β-Mannosidase (Snail) = test: β-Mannosidase (snail) inhibition
Experimental: as §1

Rat intestinal maltase = Rat intestinal maltase inhibition; details: α-Glucosidase
Experimental: as §1

[6] = molecular target: T4, α-L-Fucosidase (Bovine kidney) (Bos taurus, UniProt Q2KIM0); test: α-L-Fucosidase (bovine kidney) inhibition
T4 construct: purchased Sigma-Aldrich Chemical Co; host or cells: bovine kidney
T4 sequence (Q2KIM0 23-468): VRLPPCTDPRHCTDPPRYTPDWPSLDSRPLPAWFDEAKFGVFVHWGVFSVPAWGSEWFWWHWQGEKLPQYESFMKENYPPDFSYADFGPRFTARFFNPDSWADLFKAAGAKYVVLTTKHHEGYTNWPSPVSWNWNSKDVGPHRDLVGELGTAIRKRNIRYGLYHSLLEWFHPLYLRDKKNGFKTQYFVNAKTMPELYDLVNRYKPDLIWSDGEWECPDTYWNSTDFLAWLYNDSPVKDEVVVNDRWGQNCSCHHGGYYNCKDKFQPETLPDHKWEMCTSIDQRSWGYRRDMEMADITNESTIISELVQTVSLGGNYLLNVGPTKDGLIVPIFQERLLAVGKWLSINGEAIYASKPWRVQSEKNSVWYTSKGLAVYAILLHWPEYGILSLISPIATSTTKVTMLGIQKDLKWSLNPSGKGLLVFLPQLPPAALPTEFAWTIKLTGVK
Experimental: as §1

β-Glucosidase (Almond) = test: β-Glucosidase (almond) inhibition
Experimental: as §1

[7] = 1000 μM, read-out: Inhibition % at 1000 μM

T1 sequence (Q42656 16-378): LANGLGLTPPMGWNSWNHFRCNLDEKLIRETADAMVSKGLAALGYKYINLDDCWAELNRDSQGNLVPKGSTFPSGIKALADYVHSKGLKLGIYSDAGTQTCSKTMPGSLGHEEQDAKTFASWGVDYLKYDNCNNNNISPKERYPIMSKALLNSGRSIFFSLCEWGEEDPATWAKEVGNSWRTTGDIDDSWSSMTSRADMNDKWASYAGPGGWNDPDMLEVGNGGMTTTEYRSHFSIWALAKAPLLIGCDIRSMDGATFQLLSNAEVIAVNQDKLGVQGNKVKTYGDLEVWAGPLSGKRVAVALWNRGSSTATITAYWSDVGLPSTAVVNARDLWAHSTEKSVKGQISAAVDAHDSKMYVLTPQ

Structure (SMILES)	inhibition at 1000 µM [1, 7]	inhibition at 1000 µM ([1]; read-out: IC50)	IC50 [2]	Inhibition % at 1000 μM [2]	inhibition at 1000 µM [3, 7]	inhibition at 1000 µM ([3]; read-out: IC50)	IC50 [4]	Inhibition % at 1000 μM [4]	inhibition at 1000 µM [5, 7]	inhibition at 1000 µM ([5]; read-out: IC50)	IC50 (β-Mannosidase (Snail))	Inhibition % at 1000 μM (β-Mannosidase (Snail))	IC50 (Rat intestinal maltase)	Inhibition % at 1000 μM (Rat intestinal maltase)	inhibition at 1000 µM [6, 7]	inhibition at 1000 µM ([6]; read-out: IC50)	IC50 (β-Glucosidase (Almond))	Inhibition % at 1000 μM (β-Glucosidase (Almond))
CC(=O)NC[C@H]1N[C@H](CO)[C@H](O)[C@H]1O [F-10b, 1-N-acetylamino-2,5-imino-1,2,5-trideoxy-D-iditol hydrochloride]	0%	< 50%	NI (No Inhibition (less than 50% at 1000 μM))	3.0%	2.3%	< 50%	NI (No Inhibition (less than 50% at 1000 μM))	0%	0%	< 50%	NI (No Inhibition (less than 50% at 1000 μM))	0%	NI (No Inhibition (less than 50% at 1000 μM))	12.7%	3.9%	< 50%	NI (No Inhibition (less than 50% at 1000 μM))	19.8%
CC(=O)NC[C@H]1N[C@@H](CO)[C@H](O)[C@@H]1O [G-10, 1-N-acetylamino-2,5-imino-1,2,5-trideoxy-D-allitol hydrochloride]	0%	< 50%	NI (No Inhibition (less than 50% at 1000 μM))	9.5%	2.3%	< 50%	NI (No Inhibition (less than 50% at 1000 μM))	0%	0%	< 50%	NI (No Inhibition (less than 50% at 1000 μM))	0%	NI (No Inhibition (less than 50% at 1000 μM))	16.0%	11.5%	< 50%	NI (No Inhibition (less than 50% at 1000 μM))	15.3%
CC(=O)NC[C@@H]1N[C@H](CO)[C@@H](O)[C@H]1O [H-10, 1-N-acetylamino-2,5-imino-1,2,5-trideoxy-L-allitol hydrochloride]	0%	< 50%	NI (No Inhibition (less than 50% at 1000 μM))	7.7%	6.1%	< 50%	NI (No Inhibition (less than 50% at 1000 μM))	1.7%	0%	< 50%	NI (No Inhibition (less than 50% at 1000 μM))	0%	NI (No Inhibition (less than 50% at 1000 μM))	13.6%	22.3%	< 50%	NI (No Inhibition (less than 50% at 1000 μM))	17.1%
